Results: patent publication US8722731B2, “Furanyl compounds and the use thereof” (NovoMedix, LLC, priority 2010, dated 2014)
Each block holds one compound with its values, some of them ahead of it.

Key:
U87-MG = test: IC50 cell-based assay, adherent cells, U87-MG; details: Homo sapiens, U-87 MG, Brain, glioblastoma, 72 hours, read-out: IC50 of Compounds in Adherent Cell Types
Method: (§1) In one embodiment, the IC50s of the compounds provided herein were determined in cell-based assays using adherent cells. In one embodiment, the activity of the compounds provided herein were determined in a cell-based assay using the triple negative breast cancer cell line MDA-MB-468. In one embodiment, the adherent cells used in the cell-based assays may be a cell type selected from Table 1. In one embodiment, the cell-based assay may be carried out as provided herein. On day 0, cells were seeded at 20,000 cells per well in 100 µL of media into individual wells of a 96-well tissue culture plate. The next day, compounds were diluted to twice the desired final concentration and added in 100 µL of media for a final volume of 200 μL. Standard solutions for each compound were prepared at 1000× concentration in DMSO. The highest concentration was 30 mM. Serial 1:1 dilutions were made from there for a 6- or 9-point curve (e.g., 30 mM, 15 mM, 7.5 mM, etc). Compounds were then diluted 1:500 in media, and 100 µL of the resulting solution was added to each well for a final dilution of 1:1000. Each concentration of compound was tested in triplicate. Cells were incubated at 37° C. with 5% CO2. After 72 hours, 20 μL of CellTiter 96 Aqueous One Solution Cell Proliferation Assay (Promega) was added to each well. Cells were placed back in the incubator, and the absorbance at 490 nm was read after 2-3 hours. The concentration of compound that decreased the number of metabolically active cells by 50% was determined and reported as the IC50. “Percent Viability” was determined by subtracting the average background value (media only) and expressed as a ratio to the average value obtained from cells treated with only DMSO.

MCF-7 = test: IC50 cell-based assay, adherent cells, MCF-7; details: Homo sapiens, MCF7, Breast, ER+, 72 hours, read-out: IC50 of Compounds in Adherent Cell Types
Method: as §1

MDA-MB-231 = test: IC50 cell-based assay, adherent cells, MDA-MB-231; details: Homo sapiens, Breast, triple neg, 72 hours, read-out: IC50 of Compounds in Adherent Cell Types
Method: as §1

HT-29 = test: IC50 cell-based assay, adherent cells, HT-29; details: Homo sapiens, Colorectal, adenocarcinoma, 72 hours, read-out: IC50 of Compounds in Adherent Cell Types
Method: as §1

A549 = test: IC50 cell-based assay, adherent cells, A549; details: Homo sapiens, Lung, NSCLC, 72 hours, read-out: IC50 of Compounds in Adherent Cell Types
Method: as §1

H-460 = test: IC50 cell-based assay, adherent cells, H-460; details: Homo sapiens, NCI-H460, Lung, large cell carcinoma, 72 hours, read-out: IC50 of Compounds in Adherent Cell Types
Method: as §1

Panc-1 = test: IC50 cell-based assay, adherent cells, Panc-1; details: Homo sapiens, Pancreas, epitheloid carcinoma, 72 hours, read-out: IC50 of Compounds in Adherent Cell Types
Method: as §1

FaDu = test: IC50 cell-based assay, adherent cells, FaDu; details: Homo sapiens, Pharynx, squamous cell, 72 hours, read-out: IC50 of Compounds in Adherent Cell Types
Method: as §1

MHH-CALL-4 = test: IC50 cell-based assay, suspension cells, MHH-CALL-4; details: MHHCALL4, Leukemia, B-ALL (CRLF2 Hi), read-out: IC50 of Compounds in Suspension Cell Types
Method: as §1
(§2) In one embodiment, the IC50s of the compounds provided herein were determined in cell-based assays using suspension cells. In one embodiment, the activity of the compounds provided herein were determined in a cell-based assay using the JeKo-1 cell line (mantle cell lymphoma) or the Pfeiffer cell line (diffuse large B-cell lymphoma). In one embodiment, the suspension cells used in the cell-based assays may be a cell type selected from Table 2. Assays with suspension cells were similar except that 40,000-60,000 cells were added to each well and compounds were added immediately after cell plating.

Kg1a = test: IC50 cell-based assay, suspension cells, Kg1a; details: Homo sapiens, KG-1a, Leukemia, AML, read-out: IC50 of Compounds in Suspension Cell Types
Method: as §1, §2

Nalm-6 = test: IC50 cell-based assay, suspension cells, Nalm-6; details: Homo sapiens, Leukemia, B-ALL, read-out: IC50 of Compounds in Suspension Cell Types
Method: as §1, §2

Z138, JeKo-1 = test: IC50 cell-based assay, suspension cells, Z138, JeKo-1; details: Lymphoma, Mantle cell, read-out: IC50 of Compounds in Suspension Cell Types
Method: as §1, §2

Pfeiffer = test: IC50 cell-based assay, suspension cells, Pfeiffer; details: Homo sapiens, Lymphoma, Diffuse large b-cell, read-out: IC50 of Compounds in Suspension Cell Types
Method: as §1, §2

[1] = Percent weight change of animals in MDA-MB-468 xenograft study; format: in vivo, Mouse/SCID; details: SCID mice
Method: In one embodiment, the effects of a compound provided herein on tumor growth in a mouse animal model were evaluated. In specific embodiments, the mouse animal model was the MDA-MB-468 xenograft model for breast cancer. Studies were performed to evaluate the effect of a compound provided herein on the growth of MDA-MB-468 breast tumors in mice. The test system that was used is summarized below:
Exemplary Protocol: Ten mice per group were inoculated s.c. on the left flank with 5×10^6 MDA-MB-468 cells. When tumors reached a mean volume of 100 or 200 mm^3, animals began treatment with a compound provided herein (See Table 4). Test article or vehicle were given once daily by IP injection for up to 21 days. Tumors were evaluated every Monday, Wednesday and Friday, body weights and condition were evaluated on a daily basis.
Animal Weight: All animals were weighed […] throughout the study. Group weight change was expressed as a daily group mean weight. Animals that lost greater than 20% of their total starting body weight were euthanized.
Compound 1 was dosed in mice at a dose of, for example, qd 50 mg/kg, for 22 days or more.
Compound 2 was dosed in mice at a dose of, for example, qd 20 mg/kg from day 0 to 7, then qd 10 mg/kg from day 8 and thereafter, for 22 days or more.

IC50 (U87-MG): < 5 µM
IC50 (MCF-7): < 5 µM
IC50 (MDA-MB-231): < 5 µM
IC50 (HT-29): < 5 µM
IC50 (A549): < 5 µM
IC50 (H-460): 10 to 20 µM
IC50 (Panc-1): < 5 µM
IC50 (FaDu): < 5 µM
IC50 (MHH-CALL-4): 5 to 10 µM
IC50 (Kg1a): < 5 µM
IC50 (Nalm-6): < 5 µM
IC50 (Z138, JeKo-1): < 5 µM
IC50 (Pfeiffer): < 5 µM
Percent Weight Change of Control and Treated Animals, mean ([1]; Day 1, qd 50 mg/kg IP): 0.00%
Percent Weight Change of Control and Treated Animals, mean ([1]; Day 2, qd 50 mg/kg IP): −0.44%
Percent Weight Change of Control and Treated Animals, mean ([1]; Day 3, qd 50 mg/kg IP): −1.43%
Percent Weight Change of Control and Treated Animals, mean ([1]; Day 4, qd 50 mg/kg IP): −2.23%
Percent Weight Change of Control and Treated Animals, mean ([1]; Day 5, qd 50 mg/kg IP): −2.06%
Percent Weight Change of Control and Treated Animals, mean ([1]; Day 6, qd 50 mg/kg IP): −2.03%
Percent Weight Change of Control and Treated Animals, mean ([1]; Day 7, qd 50 mg/kg IP): −3.50%
Percent Weight Change of Control and Treated Animals, mean ([1]; Day 8, qd 50 mg/kg IP): −4.53%
Percent Weight Change of Control and Treated Animals, mean ([1]; Day 9, qd 50 mg/kg IP): −2.38%
Percent Weight Change of Control and Treated Animals, mean ([1]; Day 10, qd 50 mg/kg IP): −3.42%
Percent Weight Change of Control and Treated Animals, mean ([1]; Day 11, qd 50 mg/kg IP): −1.63%
Percent Weight Change of Control and Treated Animals, mean ([1]; Day 12, qd 50 mg/kg IP): 1.40%
Percent Weight Change of Control and Treated Animals, mean ([1]; Day 13, qd 50 mg/kg IP): 1.13%
Percent Weight Change of Control and Treated Animals, mean ([1]; Day 14, qd 50 mg/kg IP): −0.56%
Percent Weight Change of Control and Treated Animals, mean ([1]; Day 15, qd 50 mg/kg IP): 2.28%
Percent Weight Change of Control and Treated Animals, mean ([1]; Day 16, qd 50 mg/kg IP): 2.07%
Percent Weight Change of Control and Treated Animals, mean ([1]; Day 17, qd 50 mg/kg IP): 2.03%
Percent Weight Change of Control and Treated Animals, mean ([1]; Day 18, qd 50 mg/kg IP): 2.87%
Percent Weight Change of Control and Treated Animals, mean ([1]; Day 19, qd 50 mg/kg IP): 4.84%
Percent Weight Change of Control and Treated Animals, mean ([1]; Day 20, qd 50 mg/kg IP): 0.92%
Percent Weight Change of Control and Treated Animals, mean ([1]; Day 21, qd 50 mg/kg IP): 1.87%
Percent Weight Change of Control and Treated Animals, mean ([1]; Day 22, qd 50 mg/kg IP): 0.07%
Structure (SMILES): O=C(Nc1cc(C(F)(F)F)cc(C(F)(F)F)c1)c1cc(-c2ccccc2)oc1C(F)(F)F [Compound 1, 5-Phenyl-2-trifluoromethyl-furan-3-carboxylic acid (3,5-bis-trifluoromethyl-phenyl)-amide]

IC50 (U87-MG): 5 to 10 µM
IC50 (MCF-7): 5 to 10 µM
IC50 (MDA-MB-231): < 5 µM
IC50 (HT-29): 5 to 10 µM
IC50 (A549): 5 to 10 µM
IC50 (H-460): > 20 µM
IC50 (Panc-1): 5 to 10 µM
IC50 (FaDu): < 5 µM
IC50 (MHH-CALL-4): < 5 µM
IC50 (Kg1a): < 5 µM
IC50 (Nalm-6): < 5 µM
IC50 (Z138, JeKo-1): < 5 µM
IC50 (Pfeiffer): < 5 µM
Percent Weight Change of Control and Treated Animals, mean ([1]; Day 1, qd 20 mg/kg days 0 to 7, then qd 10 mg/kg day 8 and thereafter, IP): 0.00%
Percent Weight Change of Control and Treated Animals, mean ([1]; Day 2, qd 20 mg/kg days 0 to 7, then qd 10 mg/kg day 8 and thereafter, IP): −1.11%
Percent Weight Change of Control and Treated Animals, mean ([1]; Day 3, qd 20 mg/kg days 0 to 7, then qd 10 mg/kg day 8 and thereafter, IP): −2.65%
Percent Weight Change of Control and Treated Animals, mean ([1]; Day 4, qd 20 mg/kg days 0 to 7, then qd 10 mg/kg day 8 and thereafter, IP): −3.35%
Percent Weight Change of Control and Treated Animals, mean ([1]; Day 5, qd 20 mg/kg days 0 to 7, then qd 10 mg/kg day 8 and thereafter, IP): −3.84%
Percent Weight Change of Control and Treated Animals, mean ([1]; Day 6, qd 20 mg/kg days 0 to 7, then qd 10 mg/kg day 8 and thereafter, IP): −1.98%
Percent Weight Change of Control and Treated Animals, mean ([1]; Day 7, qd 20 mg/kg days 0 to 7, then qd 10 mg/kg day 8 and thereafter, IP): −3.25%
Percent Weight Change of Control and Treated Animals, mean ([1]; Day 8, qd 20 mg/kg days 0 to 7, then qd 10 mg/kg day 8 and thereafter, IP): −5.29%
Percent Weight Change of Control and Treated Animals, mean ([1]; Day 9, qd 20 mg/kg days 0 to 7, then qd 10 mg/kg day 8 and thereafter, IP): −3.91%
Percent Weight Change of Control and Treated Animals, mean ([1]; Day 10, qd 20 mg/kg days 0 to 7, then qd 10 mg/kg day 8 and thereafter, IP): −6.29%
Percent Weight Change of Control and Treated Animals, mean ([1]; Day 11, qd 20 mg/kg days 0 to 7, then qd 10 mg/kg day 8 and thereafter, IP): −3.98%
Percent Weight Change of Control and Treated Animals, mean ([1]; Day 12, qd 20 mg/kg days 0 to 7, then qd 10 mg/kg day 8 and thereafter, IP): −1.48%
Percent Weight Change of Control and Treated Animals, mean ([1]; Day 13, qd 20 mg/kg days 0 to 7, then qd 10 mg/kg day 8 and thereafter, IP): −1.39%
Percent Weight Change of Control and Treated Animals, mean ([1]; Day 14, qd 20 mg/kg days 0 to 7, then qd 10 mg/kg day 8 and thereafter, IP): −2.75%
Percent Weight Change of Control and Treated Animals, mean ([1]; Day 15, qd 20 mg/kg days 0 to 7, then qd 10 mg/kg day 8 and thereafter, IP): −0.49%
Percent Weight Change of Control and Treated Animals, mean ([1]; Day 16, qd 20 mg/kg days 0 to 7, then qd 10 mg/kg day 8 and thereafter, IP): −1.04%
Percent Weight Change of Control and Treated Animals, mean ([1]; Day 17, qd 20 mg/kg days 0 to 7, then qd 10 mg/kg day 8 and thereafter, IP): −0.16%
Percent Weight Change of Control and Treated Animals, mean ([1]; Day 18, qd 20 mg/kg days 0 to 7, then qd 10 mg/kg day 8 and thereafter, IP): 0.96%
Percent Weight Change of Control and Treated Animals, mean ([1]; Day 19, qd 20 mg/kg days 0 to 7, then qd 10 mg/kg day 8 and thereafter, IP): −0.20%
Percent Weight Change of Control and Treated Animals, mean ([1]; Day 20, qd 20 mg/kg days 0 to 7, then qd 10 mg/kg day 8 and thereafter, IP): −1.98%
Percent Weight Change of Control and Treated Animals, mean ([1]; Day 21, qd 20 mg/kg days 0 to 7, then qd 10 mg/kg day 8 and thereafter, IP): −0.19%
Percent Weight Change of Control and Treated Animals, mean ([1]; Day 22, qd 20 mg/kg days 0 to 7, then qd 10 mg/kg day 8 and thereafter, IP): −0.65%
Structure (SMILES): O=C(Nc1cc(C(F)(F)F)cc(C(F)(F)F)c1)c1cc(-c2ccc(Cl)cc2)oc1C(F)(F)F [Compound 2, 5-(4-Chlorophenyl)-N-(3,5-bistrifluoromethylphenyl)-2-trifluoromethylfuran-3-carboxamide]
